The values that follow come from US12378250B2, “Tricyclic compound as IRAK4 inhibitor” (KOREA RESEARCH INSTITUTE OF CHEMICAL TECHNOLOGY, priority 2018, dated 2025).

As a reminder, the IC50 is the concentration that inhibits the measured activity by half. Higher therefore signals weaker potency in that assay. The term inhibition denotes how much of the control response was suppressed.

Molecules are shown by their SMILES. Some results are limits rather than exact numbers.

In experiment [1] the target is T1, IRAK4 enzyme (Homo sapiens, UniProt Q9NWZ3).
T1 sequence (Q9NWZ3 1-460): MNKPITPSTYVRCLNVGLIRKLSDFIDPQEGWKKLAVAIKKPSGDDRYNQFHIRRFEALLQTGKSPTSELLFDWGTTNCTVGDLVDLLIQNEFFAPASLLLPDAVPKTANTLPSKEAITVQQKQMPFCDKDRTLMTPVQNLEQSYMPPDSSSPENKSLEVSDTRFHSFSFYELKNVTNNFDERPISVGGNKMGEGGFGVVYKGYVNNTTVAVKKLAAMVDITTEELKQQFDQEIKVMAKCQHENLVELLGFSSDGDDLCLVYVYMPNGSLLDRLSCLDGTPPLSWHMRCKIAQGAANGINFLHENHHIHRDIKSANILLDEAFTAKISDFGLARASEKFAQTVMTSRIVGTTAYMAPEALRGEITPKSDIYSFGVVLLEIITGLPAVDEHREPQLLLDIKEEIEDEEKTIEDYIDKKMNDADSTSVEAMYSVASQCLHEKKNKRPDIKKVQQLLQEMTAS
Description: IRAK4 enzyme inhibition degree (bead-based kinase assay, peptide substrate BMKC-2, 100 μM ATP). The format is biochemical. The settings on record: for inhibition at 1 µM: compound 1 μM. On the procedure: 2.5 μl of a compound diluted to 4-fold of a final concentration was put into a 384-well white plate (low volume). 2.5 μl of 0.4 ng/μl IRAK4 enzyme was added thereto, and the resulting mixture was totally reacted for 10 minutes. 5 μl of a mixed liquid of a 6 μM peptide substrate (BMKC-2) and 100 μM ATP was added thereto, the resulting mixture was reacted at room temperature for 60 minutes, then 2.5 μl of 10 mM EDTA was added thereto, and the resulting mixture was reacted again for 10 minutes. 40 nM anti-phospho Thr antibody was aliquoted to 2.5 μl each, 5 μl of a mixed solution of a 160 μl/ml acceptor bead and a donor bead was added thereto, and then the resulting mixture was reacted at room temperature for 60 minutes. Fluorescence signals were measured using a bead experimental apparatus (Fusion alpha-FP Microplate Reader, Perkin Elmer Inc.).
From the detected signal, an activity inhibition rate [% inhibition degree=(the average value of a compound−the average value of a negative control)/(the average value of a positive control−the average value of a negative control)×100] was calculated, and is shown in [Table 1]. Further, a % inhibition degree of the compound at each concentration was obtained, and then a 50% inhibition concentration (IC50 value) was analyzed by a non-linear regression analysis.

In experiment [2] the test system is TNF-α secretion, peripheral blood mononuclear cells (PBMCs). Description: Suppression of TNF-α secretion in LPS-treated PBMCs (ELISA). The format is cell-based. The following applies: PBMC, 100 ng/ml LPS, 24 hours, read-out: TNF-α, % inhibition degree. On the procedure:
(§1) Peripheral blood mononuclear cells (PBMCs) isolated from whole blood were distributed in a 96-well plate. TNF-α was aliquoted at a density of 1×10^5 cells/well, IFN-α was aliquoted at a density of 2×10^5 cells/well, and TNF-α and IFN-α were treated with a compound diluted to 4-fold of a final concentration and totally cultured for 30 minutes. TNF-α was treated with 100 ng/ml lipopolysaccharide (LPS), IFN-α was treated with 500 nM ODN2216 (CpGTLR9 stimulator), and TNF-α and IFN-α were further cultured for 24 hours and 72 hours, respectively. An enzyme-linked immunosorbent assay (ELISA) was performed on TNF-α and IFN-α using an ELISA kit manufactured by BD Biosciences and an ELISA kit manufactured by PBL Assay Science, Inc., respectively. A cell supernatant and a standard drug were put into the ELISA plates and reacted for 2 hours. The plates were washed and a measurement antibody and streptavidin-HRP were sequentially added thereto. After the plates were washed, a TMB substrate was added thereto and reacted in a dark place. The reaction was stopped by adding a stop solution thereto, and the absorbance at 450 nm and 570 nm was measured using an absorber (OPTIMax tunable microplate reader, molecular devices). The experimental results are shown in [Table 2].
(In an ELISA, binding on a coated surface is turned into a signal by an enzyme label.)

In experiment [3] the test system is IFN-α secretion, peripheral blood mononuclear cells (PBMCs). Nature of the experiment: Suppression of IFN-α secretion in ODN2216-treated PBMCs (ELISA). The settings on record: PBMC, 500 nM ODN2216, 72 hours, read-out: IFN-α, % inhibition degree. The class given is cell-based. The protocol:
as §1

In experiment [4] the test system is NF-κB promoter, THP1-Lucia™ NF-κB cell line. Nature of the experiment: NF-κB promoter inhibition, THP1-Lucia NF-κB cell line. The class given is cell-based. The following applies: 100 ng/ml LPS, 24 hours, read-out: NF-κB, % inhibition degree. On the procedure:
(§2) A THP1-Lucia™ NF-κB cell line (Invivogen) was used in an NF-κB inhibition experiment, and a THP1-Lucia™ ISG cell line was used in an ISG inhibition experiment. In the NF-κB inhibition experiment, cells were planted at a density of 1×10^4 cells/well in a 96-well plate, and in the ISG inhibition experiment, cells were planted at a density of 2×10^4 cells/well in a 96-well plate. The cells were treated with a compound diluted to 4-fold of a final concentration, and totally cultured for 30 minutes. NF-κB was treated with 100 ng/ml lipopolysaccharide (LPS), ISG was treated with a stimulator of 1 μg/ml Poly(dA:dT)/LyoVec, and NF-κB and ISG were cultured for 24 hours. 10 μl of a cell supernatant was taken and transferred to a 96-well plate. 50 μl of a Quanti-luc solution was aliquoted using an automatic aliquoter of a measurer (Envision Multilabel Plate Reader, Perkin Elmer, Inc.), and light emission signals were measured.

The test system of experiment [5] is ISG promoter, THP1-Lucia™ ISG cell line. Nature of the experiment: ISG promoter inhibition, THP1-Lucia ISG cell line. The following applies: 1 μg/ml Poly(dA:dT)/LyoVec, 24 hours, read-out: ISG, % inhibition degree. The class given is cell-based. The protocol: as §2

On to `O=[N+]([O-])c1cccc(-c2ccc3[nH]c4ncnc(N[C@H]5CC[C@H](N6CCOCC6)CC5)c4c3c2)c1` [Compound 6aai, N-(trans-4-morpholinocyclohexyl)-6-(3-nitrophenyl)-9H-pyrimido[4,5-b]indole-4-amine], for which half-maximal inhibition in experiment [1] (IC50) was put at 67.6 nM. For the same compound, the inhibition at 1 µM in experiment [1] is 98%; in experiment [2], 62%; in experiment [3] it was 87%; in experiment [4], 36%; in experiment [5], 41%. For the same compound, the inhibition at 0.1 µM in experiment [2] is 13%; in experiment [3] it was 32%; in experiment [4], 6%; in experiment [5], 9%.

As to `COc1cccc(-c2ccc3[nH]c4ncnc(N[C@H]5CC[C@H](N6CCOCC6)CC5)c4c3c2)c1` [Compound 6aaj, 6-(3-methoxyphenyl)-N-(trans-4-morpholinocyclohexyl)-9H-pyrimido[4,5-b]indole-4-amine], the half-inhibitory concentration (IC50) in experiment [1] is 159 nM. Also, the inhibition at 1 µM in experiment [1] was found to be 99%; in experiment [2], 30%; in experiment [3], 56%; in experiment [4], 33%; in experiment [5] it was 20%. Besides, the inhibition at 0.1 µM was 3.2% in experiment [2], 6.4% in experiment [3], < 1% in experiment [4] and 14% in experiment [5].

As for `N#Cc1cccc(-c2ccc3[nH]c4ncnc(N[C@H]5CC[C@H](N6CCOCC6)CC5)c4c3c2)c1` [Compound 6aak, 3-(4-((trans-4-morpholinocyclohexyl)amino)-9H-pyrimido[4,5-b]indol-6-yl) benzonitrile], inhibition in experiment [1] was half-maximal at 104 nM (IC50). Besides, the inhibition at 1 µM in experiment [1] came out at 98%; in experiment [2] it was 70%; in experiment [3] it was 98%; in experiment [4], 37%; in experiment [5], 30%. Further, the inhibition at 0.1 µM in experiment [2] was 16%; in experiment [3], 53%; in experiment [4], < 1%; in experiment [5], < 1%.

The compound `Fc1cc(F)cc(-c2ccc3[nH]c4ncnc(N[C@H]5CC[C@H](N6CCOCC6)CC5)c4c3c2)c1` [Compound 6aal, 6-(3,5-difluorophenyl)-N-(trans-4-morpholinocyclohexyl)-9H-pyrimido[4,5-b]indole-4-amine] came in with an IC50 in experiment [1] of 151 nM. Also, the inhibition at 1 µM in experiment [1] amounted to 99%; in experiment [2], 57%; in experiment [3], 70%; in experiment [4] it was 15%; in experiment [5], 17%. Also, the inhibition at 0.1 µM was 13% in experiment [2], 18% in experiment [3], < 1% in experiment [4] and 1% in experiment [5].

In experiment [1], `Fc1ccc(-c2ccc3[nH]c4ncnc(N[C@H]5CC[C@H](N6CCOCC6)CC5)c4c3c2)c(F)c1` [Compound 6aam, 6-(2,4-difluorophenyl)-N-(trans-4-morpholinocyclohexyl)-9H-pyrimido[4,5-b]indole-4-amine] yielded an IC50 of 244 nM. Further, the inhibition at 1 µM is 37% in experiment [1]; 28% in experiment [2]; 55% in experiment [3]; 11% in experiment [4]; < 1% in experiment [5]. Also, the inhibition at 0.1 µM in experiment [2] is 5%; in experiment [3], 9%; in experiment [4], < 1%; in experiment [5] it was < 1%.
